{"source": "patent US9365590B2", "about": "“Selenophene-fused aromatic compound and manufacturing method thereof” (Industry-Academia Cooperation Group of Sejong University, priority 2011, dated 2016)"}
{"system": "SK-OV-3 cancer cells", "assay": "SK-OV-3 cancer cell proliferation inhibition (WST-1 assay)", "type": "cell-based", "conditions": "Homo sapiens, SK-OV-3, 72 h, read-out: Proliferation inhibition effect (10 nM; %)", "method": "(§1) Meanwhile, in the present Example, proliferation inhibition effect of the compound in accordance with Comparative Example 1 and the compounds corresponding to Entry 59 to Entry 72 on SK-OV-3 cancer cells were checked, and a result thereof was as shown in [Table 5].\n(§2) <Experiment Method of Proliferation Inhibition Effect>\n(§3) SK-OV-3 cells floated on McCoy's 5A Medium in which 10% FBS and 1% P/S were added were inoculated into a 96-Well plate at a concentration of 3×10^4/100 μl per Well and cultured at 37° C. for 4 hours and then, treated with 100 μl of each compound, so that a final concentration of 10 nM was attained. Then, the cells were cultured at 37° C. for 72 hours. As a control, the cells were treated with DMSO as a solvent of the compounds to attain a final concentration of 0.1%. Each well was treated with 10 μl of a WST-1 assay reagent (iTSBio, Korea), and cultured at 37° C. for 2 hours. Then, absorbance was measured with an automatic Microplate Reader at 450 nm. A cell growth inhibition level was calculated by {(A450control−A450compound)/A450control}*100.", "units": {"inhibition at 0.01 µM": "%"}}
{"smiles": "COc1ccc2c(O)cc3c(c2c1)[C@H](CCl)CN3C(=O)c1cc2cc(OC)c(OC)c(OC)c2[nH]1", "note": "[Comparative Example 1, seco-MCBI-TMI, reference compound]", "inhibition at 0.01 µM": 80}
{"smiles": "COc1ccc2c(O)cc3c(c2c1)[C@H](CCl)CN3C(=O)c1cc2cc([N+](=O)[O-])ccc2[se]1", "note": "[Entry 59, seco-MCBI-Nitro-Selenophene]", "inhibition at 0.01 µM": 74}
{"smiles": "COc1ccc2[se]c(C(=O)N3C[C@@H](CCl)c4c3cc(O)c3ccc(OC)cc43)cc2c1", "note": "[Entry 60, seco-MCBI-Methoxy-Selenophene]", "inhibition at 0.01 µM": 78}
{"smiles": "COc1ccc2c(O)cc3c(c2c1)[C@H](CCl)CN3C(=O)c1cc2cc(NC(C)=O)ccc2[se]1", "note": "[Entry 61, seco-MCBI-Acetamino-Selenophene]", "inhibition at 0.01 µM": 81}
{"smiles": "COc1ccc2c(c1)C13CC1CN(C(=O)c1cc4cc(NC(C)=O)ccc4[se]1)C3=CC2=O", "note": "(stereo not drawn) [Entry 62]", "inhibition at 0.01 µM": 86}
{"smiles": "COc1ccc2c(O)cc3c(c2c1)[C@H](CCl)CN3C(=O)c1cc2sccc2[se]1", "note": "[Entry 63]", "inhibition at 0.01 µM": 78}
{"smiles": "COc1ccc2cc(C(=O)N3C[C@@H](CCl)c4c3cc(O)c3ccc(OC)cc43)[se]c2c1", "note": "[Entry 64]", "inhibition at 0.01 µM": 85}
{"smiles": "CCCCCC(=O)Nc1ccc2[se]c(C(=O)N3C[C@@H](CCl)c4c3cc(O)c3ccc(OC)cc43)cc2c1", "note": "[Entry 66]", "inhibition at 0.01 µM": 87}
{"smiles": "COc1ccc2c(O)cc3c(c2c1)[C@H](CCl)CN3C(=O)c1cc2cc(OC)c(OC)cc2[se]1", "note": "[Entry 67]", "inhibition at 0.01 µM": 78}
{"smiles": "COc1ccc2c(O)cc3c(c2c1)[C@H](CCl)CN3C(=O)c1cc2cccnc2[se]1", "note": "[Entry 68]", "inhibition at 0.01 µM": 82}
{"smiles": "COc1ccc2c(O)cc3c(c2c1)[C@H](CCl)CN3C(=O)c1cc2occc2[se]1", "note": "[Entry 69]", "inhibition at 0.01 µM": 73}
{"smiles": "CCCC(=O)Nc1ccc2[se]c(C(=O)N3C[C@@H](CCl)c4c3cc(O)c3ccccc43)cc2c1", "note": "[Entry 71]", "inhibition at 0.01 µM": 73}
{"smiles": "CCCC(=O)Nc1ccc2[se]c(C(=O)N3C[C@H]4C[C@@]45C3=CC(=O)c3ccccc35)cc2c1", "note": "[Entry 72]", "inhibition at 0.01 µM": 75}
{"system": "SK-OV-3 cancer cells", "assay": "SK-OV-3 cancer cell proliferation inhibition (WST-1 assay)", "type": "cell-based", "conditions": "Homo sapiens; SK-OV-3 cells, final concentration of 10 nM, cultured 72 hours, WST-1, absorbance 450 nm, vs DMSO control; read-out: Proliferation inhibition effect (10 nM; %)", "method": "as §1, §2, §3", "units": {"inhibition at 0.01 µM": "%"}}
{"smiles": "COc1cc2cc(C(=O)N3C[C@@H](CCl)c4c3cc(O)c3ccccc43)[nH]c2c(OC)c1OC", "note": "[Entry 70, CBI-TMI, reference compound]", "inhibition at 0.01 µM": 80}
{"system": "not given", "assay": "not given", "conditions": "not given", "units": {"melting point": "°C"}}
{"smiles": "CCOC(=O)c1cc2cc(N)ccc2[se]1", "melting point": "78 to 80"}
